# Experimental data published in US10246455B2, “Histone deacetylase inhibitors” (Taipei Medical University, priority 2014, dated 2019).
# Columns and labels:
# [1] = system: LNCaP-R1 (prostate carcinoma); assay: IC50 against human cancer cell lines: LNCaP-R1; details: read-out: IC50 ± SD against human cancer cell lines
# Protocol: (§1) More specifically, the IC50 values of test compounds were determined by carrying out a fluorimetric histone deacetylase assay following the manufacturer's instructions. For a pan-HDAC assay, HeLa nuclear extracts were used as a source of histone deacetylase (BioVision Inc.). Histone deacetylase isomer inhibition assays were conducted using purified recombinant histone deacetylase proteins of the various isomers (BPS Bioscience Inc.). Reactions were performed in 0.1 mol/L KCl, 20 mmol/L HEPES/NaOH at pH 7.9, 20% glycerol, 0.2 mmol/L DTA, 0.5 mmol/L DTT, and 0.5 mmol/L phenylmethylsulfonylfluoride. […] Reactions were carried out in triplicate for each test compound. Each point represented the mean±SD of replicates.
# [2] = system: Detroit551 (normal: fibroblast); assay: IC50 against cell lines: Detroit551; details: Homo sapiens, Detroit 551, read-out: IC50 ± SD against human cancer cell lines
# MCF-7 (breast carcinoma) = assay: IC50 in human cancer cell lines (inhibiting HDAC): MCF-7; details: MCF7, read-out: IC50 ± SD against human cancer cell lines
# [3] = system: histone and α-tubulin acetylation in PC3 cells; assay: Western blot: acetylation in PC3 cells; assay type: cell-based, human; details: concentration-dependent
# Protocol: More specifically, cells in the logarithmic phase were initially seeded at a density of 1×10^6 in 100 mm^2 dishes. […] Briefly, cells were lysed with the cell lysis reagent CelLytic™ M (Sigma-Aldrich) containing 1 mM DTT, 1 mM PMSF and protease inhibitors for whole-cell lysate preparation. Equal amounts of lysate (on a protein basis) were then differentiated using the SDS-PAGE, blotted on PVDF membranes, conjugated with various specific primary antibodies, and then probed with appropriate secondary antibodies. The immunoreactive bands were detected using the ECL method and visualized on Kodak Bio-MAX MR film.
# Proteins from cells were extracted and subjected to the western blotting analysis. β-Actin was used as an internal control. The deacetylase enzyme assay was based on a homogeneous fluorescence release assay. […] After fluorophore from the deacetylated substrates, fluorescent signal was detected.
# [4] = system: KB cell line (oral carcinoma); assay: IC50 in human cancer cell lines (inhibiting HDAC): KB; details: Homo sapiens, read-out: IC50 ± SD against human cancer cell lines, KB, oral carcinoma
# [5] = system: androgen-independent PC3 prostate cancer cells; assay: Cell cycle analysis; assay type: cell-based, human; details: androgen-independent PC3 prostate cancer cells
# Protocol: More specifically, cells in the logarithmic phase were initially seeded at a density of 1×10^6 in 100 mm^2 dishes. After treatment with various concentrations of test compounds for the indicated times, cells were trypsinized, washed with PBS, and fixed in 70% ethanol. The fixed cells were then treated with 50 μg/mL RNase and stained with 50 μg/mL propidium iodide at room temperature for 20 minutes. The DNA content was determined by BD FACS Calibur flow cytometry system (BD Biosciences). For each analysis, 10,000 cells were counted, and the percentage of cells in each phase was calculated using ModFit LT software (Verity Software House, Inc.).
# [6] = system: histone and a-tubulin acetylation in human DU145 cells; assay: Western blot: acetylation in DU145 cells; assay type: cell-based
# Protocol: More specifically, cells in the logarithmic phase were initially seeded at a density of 1×10^6 in 100 mm^2 dishes. […] IC50 indicia of compound in vitro potency) for the indicated times (i.e., 24 and 48 hours), adherent cells were collected for protein extract preparation. Briefly, cells were lysed with the cell lysis reagent CelLytic™ M (Sigma-Aldrich) containing 1 mM DTT, 1 mM PMSF and protease inhibitors for whole-cell lysate preparation. Equal amounts of lysate (on a protein basis) were then differentiated using the SDS-PAGE, blotted on PVDF membranes, conjugated with various specific primary antibodies, and then probed with appropriate secondary antibodies. The immunoreactive bands were detected using the ECL method and visualized on Kodak Bio-MAX MR film. Proteins from cells were extracted and subjected to the western blotting analysis. β-Actin was used as an internal control. The deacetylase enzyme assay was based on a homogeneous fluorescence release assay. […] After fluorophore from the deacetylated substrates, fluorescent signal was detected.
# [7] = system: MDA-MB-231 (breast carcinoma); assay: IC50 against human cancer cell lines: MDA-MB-231; details: MDA-MB-231, read-out: IC50 ± SD against human cancer cell lines
# Protocol: as §1
# PC3 (prostate carcinoma) = assay: IC50 in human cancer cell lines (inhibiting HDAC): PC3; details: read-out: IC50 ± SD against human cancer cell lines
# [8] = system: H460 (non-small-cell lung carcinoma); assay: IC50 in human cancer cell lines (inhibiting HDAC): H460; details: NCI-H460, read-out: IC50 ± SD against human cancer cell lines
# [9] = system: LNCaP-R2 (prostate carcinoma); assay: IC50 against human cancer cell lines: LNCaP-R2; details: read-out: IC50 ± SD against human cancer cell lines
# WI-38 (normal: lung) = assay: IC50 against cell lines: WI-38; details: Homo sapiens, WI-38, read-out: IC50 ± SD against human cancer cell lines
# KB-L30 (KB-resistant) = assay: IC50 against human cancer cell lines: KB-L30; details: read-out: IC50 ± SD against human cancer cell lines
# Protocol: as §1
# KB-VIN10 (KB resistant) = assay: IC50 against human cancer cell lines: KB-VIN10; details: Homo sapiens, KB-VIN10, read-out: IC50 ± SD against human cancer cell lines
# [10] = system: HT-29 (colorectal carcinoma); assay: IC50 in human cancer cell lines (inhibiting HDAC): HT-29; details: HT-29, read-out: IC50 ± SD against human cancer cell lines
# KB-7D (KB resistant) = assay: IC50 against human cancer cell lines: KB-7D; details: KB7D, read-out: IC50 ± SD against human cancer cell lines
# Protocol: as §1
# [11] = system: DU-145 (prostate carcinoma); assay: IC50 against human cancer cell lines: DU-145; details: DU-145, read-out: IC50 ± SD against human cancer cell lines
# Protocol: as §1
structure (smiles),measurement,setting,value
"O=C(/C=C/c1cnc2c(ccn2S(=O)(=O)c2ccccc2)c1)NO [Compound 14a, (E)-N-hydroxy-3-(1-(phenylsulfonyl)-1H-pyrrolo[2,3-b]pyridin-5-yl)acrylamide]",IC50,[1],0.156 ± 0.04 µM
same,IC50,[2],> 1 µM
same,IC50,MCF-7 (breast carcinoma),0.17 ± 0.055 µM
same,histone and α-tubulin acetylation,[3],induced histone and α-tubulin acetylation
same,IC50,[4],0.252 ± 0.0585 µM
same,cell cycle arrest and apoptosis,[5],induced cell cycle arrest and apoptosis
same,histone and a-tubulin acetylation,[6],induced histone and a-tubulin acetylation
same,IC50,[7],0.184 ± 0.05 µM
same,IC50,PC3 (prostate carcinoma),0.38 ± 0.22 µM
same,IC50,[8],0.243 ± 0.0704 µM
same,IC50,[9],0.141 ± 0.05 µM
same,IC50,WI-38 (normal: lung),> 1 µM
same,IC50,KB-L30 (KB-resistant),0.445 ± 0.249 µM
same,IC50,KB-VIN10 (KB resistant),0.213 µM
same,IC50,[10],0.182 ± 0.0267 µM
same,IC50,KB-7D (KB resistant),0.276 ± 0.0784 µM
same,IC50,[11],0.42 ± 0.17 µM
